Legend:
[1] = test system: sensory function of injured hindlimb; assay: Pinprick assay (sensory function recovery) after sciatic nerve crush; assay type: in vivo, mice
Method: Adult male Fmn2^−/− mice (8-12 weeks old) and their age-matched WT littermates, or adult male C57BL/6 mice (for whole-body X-ray, AAV2/9-Fmn2-shRNA and metaxalone experiments) were trained and habituated one week before the sciatic nerve crush injury. After three independent training sessions (30 minutes per session with two days break), baseline values were taken, and sciatic nerve crush injury were performed one day after the baseline recordings. Function recovery was monitored for 30 days. On day 3 after the sciatic nerve crush, we first perform pinprick assay and followed by motor function assays every other day in a sequential manner (toe spreading, grip strength, and sciatic functional index) with 30 mins apart from each test. Animal behavioural tests were done blinded to the surgery and genotypes.
Mice were placed singly in small wire-mesh cages for 30-minutes habituation, an insect pin (Fine Science Tools) were applied to the lateral plantar surface of the ipsilateral hindlimb from toe to heel. The lateral planar surface was divided into 5 different areas, from the most distal toe (score=5) to the heel (score=1). The mouse was scored for that area if a brisk withdrawal response of hind paw was observed. The mouse was scored 0 if no withdrawal responses were observed after insect pin was applied to all 5 areas. Saphenous innervated area of the same hindlimb was tested as a positive control if there was no positive response from these five areas. Two rounds of pinprick assay were performed (with a 30-minute time interval) in each mouse to confirm the score.
To examine the therapeutic potential of metaxalone, adult mice received daily intraperitoneal injection of metaxalone at 10 mg/kg immediately after injury for 21 consecutive days (i.e., metaxalone treatment) or delaying daily intraperitoneal injection of metaxalone at 10 mg/kg to 24 hours post-injury for 20 consecutive days (i.e., delayed metaxalone treatment), and all metaxalone treatments ended on day 21 post-injury. The mice were then subjected to sensory and motor function recovery tests and weekly EMG recordings for 28 days post-injury.

pHDAC5 = assay: Western blot of pHDAC5 in sciatic nerve segments 0-6 mm distal to the crush site; assay type: in vivo, mice; settings: regenerating axons of sciatic nerves 3 days post-injury
Method: Ipsilateral L4/5 DRG neurons were harvested at various time points following sciatic nerve injury as indicated. Sciatic nerves were harvested 3 days after crush injury and segmented into 0-6 mm distal to the crush site. Each protein sample was pooled from 3 mice. DRG neurons and segmented sciatic nerves were mechanically dissociated with protein lysis buffer, and subjected to measurement of protein concentration using protein BCA assay (Pierce). Protein lysate (30 μg) was separated on 4-12% NuPAGE Tris-Glycine precast gel (Invitrogen). Protein was then transferred onto a PVDF membrane (Bio-Rad) and blocked with 5% non-fat milk (Bio-Rad) in TBS-T. The membrane was incubated with anti-FMN2 (1:500; ProteinTech), anti-phosphorylated HDAC5 (1:500, ThermoFisher), anti-HDAC5 (1:500, Novus Biologicals), anti-acetylated tubulin (1:10,000; Sigma-Aldrich), anti-NeuN (1:500; Millipore), anti-SOX10 (1:500; Abcam), anti-IBA-1 (1:1,000; Wako), anti-GFP (1:1,000; Cell Signaling), and anti-GAPDH antibodies (1:2,000; ProteinTech) as loading controls. The membrane was incubated with secondary antibody conjugated with horseradish peroxidase (1:2,000; Thermo-Fisher). Signals were detected using West Femto Maximum Sensitivity Substrate Kit (Thermo Scientific). […] Band intensities were measured using Image Lab software (Bio-Rad). […]

Cc1cc(C)cc(OCC2CNC(=O)O2)c1 (centres unmarked) [metaxalone]
initial response to pinprick stimuli (reaching score 1), delayed treatment ([1]; 10 mg/kg intraperitoneally daily, delayed to 24 hours post-injury, 20 days): 10 day post-injury | full sensory pinprick response regained earlier than vehicle controls, delayed treatment ([1]; 10 mg/kg intraperitoneally delayed to 24 hours post-injury): 2 days | full sensory pinprick response regained earlier than vehicle controls ([1]; 10 mg/kg intraperitoneally immediately after PNI): 4 days | initial response to pinprick stimuli (reaching score 1) ([1]; 10 mg/kg intraperitoneally once a day immediately after PNI for 21 days): 9 day post-injury | protein expression of pHDAC5 (pHDAC5): substantial increase

— patent publication US20250122253A1, “REGULATING MICROTUBULE DYNAMICS AS A THERAPEUTIC TARGET FOR NERVE REPAIR” (City University of Hong Kong, priority 2023, published 2025)
